Values after ≈ are worked out from the molar mass of the structure shown.
How the values were obtained:
[1] = test system: B. humptydooensis ATCC BAA-2767; assay: microbe, parasite or virus in culture; assay type: cell-based; conditions: Burkholderia humptydooensis, ATCCBAA2767, read-out: Minimum inhibitory concentration (MIC), B. humptydooensis ATCC BAA-2767
[2] = test system: B. thailandensis ATCC 700388; assay: microbe, parasite or virus in culture; assay type: cell-based; conditions: Burkholderia thailandensis, ATCC700388, read-out: Minimum inhibitory concentration (MIC), B. thailandensis ATCC 700388
A. baumannii PBP2 = A. baumannii PBP2 (Acinetobacter baumannii, UniProt D0C8Z9); assay: Bocillin-FL competition binding via gel filtration, A. baumannii PBP2
Outline: (§1)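 Competitive equilibrium binding with Bocillin-FL reporter: PBP pre-incubated with inhibitor dilutions, Bocillin-FL added, 15 min incubation. Labelled enzyme isolated by size-exclusion spin plates, fluorescence measured; EC50 obtained by fitting bound fraction against inhibitor concentration with a Hill-coefficient model.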

P. aeruginosa CDC-0095 = assay: microbe, parasite or virus in culture; assay type: cell-based; conditions: Pseudomonas aeruginosa, CDC0095, read-out: Minimum inhibitory concentration, P. aeruginosa CDC-0095
P. aeruginosa ATCC 27853 = assay: microbe, parasite or virus in culture; assay type: cell-based; conditions: Pseudomonas aeruginosa, ATCC27853, read-out: Minimum inhibitory concentration, P. aeruginosa ATCC 27853
P. aeruginosa CDC-0090 = assay: microbe, parasite or virus in culture; assay type: cell-based; conditions: Pseudomonas aeruginosa, CDC0090, read-out: Minimum inhibitory concentration, P. aeruginosa CDC-0090
P. aeruginosa ATCC 35151 = assay: microbe, parasite or virus in culture; assay type: cell-based; conditions: Pseudomonas aeruginosa, ATCC35151, read-out: Minimum inhibitory concentration, P. aeruginosa ATCC 35151
P. aeruginosa CDC-0054 = assay: microbe, parasite or virus in culture; assay type: cell-based; conditions: Pseudomonas aeruginosa, CDC0054, read-out: Minimum inhibitory concentration, P. aeruginosa CDC-0054
A. baumannii PBP1a = biological target: T1, A. baumannii PBP1a (Acinetobacter baumannii, UniProt A0ABX6CK30); assay: Bocillin-FL competition binding via gel filtration, A. baumannii PBP1a; conditions: competition binding assay using Bocillin-FL via gel filtration; read-out: A. baumannii PBP1a Potency
T1 sequence (A0ABX6CK30 1-851): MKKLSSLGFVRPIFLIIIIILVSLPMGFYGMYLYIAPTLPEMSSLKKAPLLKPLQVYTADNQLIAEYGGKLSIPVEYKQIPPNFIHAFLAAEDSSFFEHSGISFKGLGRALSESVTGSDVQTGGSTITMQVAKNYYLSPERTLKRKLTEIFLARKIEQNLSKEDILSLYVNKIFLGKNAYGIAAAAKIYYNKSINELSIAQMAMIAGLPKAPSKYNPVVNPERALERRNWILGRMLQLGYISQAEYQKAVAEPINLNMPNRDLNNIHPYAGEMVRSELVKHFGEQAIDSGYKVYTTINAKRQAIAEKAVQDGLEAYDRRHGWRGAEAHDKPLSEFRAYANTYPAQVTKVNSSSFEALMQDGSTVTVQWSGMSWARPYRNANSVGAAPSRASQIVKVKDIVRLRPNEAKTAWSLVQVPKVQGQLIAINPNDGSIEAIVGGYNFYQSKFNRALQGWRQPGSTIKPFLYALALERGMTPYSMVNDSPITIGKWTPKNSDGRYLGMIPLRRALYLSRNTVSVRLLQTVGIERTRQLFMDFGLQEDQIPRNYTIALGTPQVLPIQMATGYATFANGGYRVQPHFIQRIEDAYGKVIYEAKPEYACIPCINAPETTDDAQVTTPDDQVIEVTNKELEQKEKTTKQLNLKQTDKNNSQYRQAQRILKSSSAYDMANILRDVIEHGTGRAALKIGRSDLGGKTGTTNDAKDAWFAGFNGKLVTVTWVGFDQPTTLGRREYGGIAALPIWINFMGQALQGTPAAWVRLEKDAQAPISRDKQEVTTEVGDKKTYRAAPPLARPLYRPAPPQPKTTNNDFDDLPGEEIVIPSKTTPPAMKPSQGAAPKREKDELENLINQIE
Outline: as §1

P. aeruginosa CDC-0110 = assay: microbe, parasite or virus in culture; assay type: cell-based; conditions: Pseudomonas aeruginosa, CDC0110, read-out: Minimum inhibitory concentration, P. aeruginosa CDC-0110
B. pseudomallei Bp82 = assay: microbe, parasite or virus in culture; assay type: cell-based; conditions: Burkholderia pseudomallei, BP82, read-out: Minimum inhibitory concentration, B. pseudomallei Bp82
[3] = test system: P. aeruginosa (ΔmexAB-oprM); assay: Broth microdilution MIC in iron-depleted CAMHB (IDM); assay type: cell-based; conditions: Pseudomonas aeruginosa, read-out: Minimum inhibitory concentration, P. aeruginosa ΔmexAB-oprM

A. baumannii PBP2, sequence (D0C8Z9 whole entry): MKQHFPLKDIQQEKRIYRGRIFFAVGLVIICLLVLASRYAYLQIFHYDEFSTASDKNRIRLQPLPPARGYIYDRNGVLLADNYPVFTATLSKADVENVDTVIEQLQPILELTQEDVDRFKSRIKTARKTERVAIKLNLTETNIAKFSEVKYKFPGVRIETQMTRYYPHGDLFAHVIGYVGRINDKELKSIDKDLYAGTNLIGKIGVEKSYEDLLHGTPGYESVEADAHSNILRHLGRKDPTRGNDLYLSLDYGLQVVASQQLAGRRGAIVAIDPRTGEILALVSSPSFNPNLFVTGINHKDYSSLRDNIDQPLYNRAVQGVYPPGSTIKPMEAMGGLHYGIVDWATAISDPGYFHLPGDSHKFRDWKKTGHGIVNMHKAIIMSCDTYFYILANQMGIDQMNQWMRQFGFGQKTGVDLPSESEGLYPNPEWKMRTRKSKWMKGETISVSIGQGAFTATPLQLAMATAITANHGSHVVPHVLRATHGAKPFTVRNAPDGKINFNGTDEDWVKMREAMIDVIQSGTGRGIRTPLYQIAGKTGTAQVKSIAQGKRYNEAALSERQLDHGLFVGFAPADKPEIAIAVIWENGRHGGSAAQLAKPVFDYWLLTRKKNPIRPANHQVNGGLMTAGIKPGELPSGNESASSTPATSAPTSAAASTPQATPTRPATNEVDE

| SMILES | MIC [1] [µg/mL] | MIC [2] [µg/mL] | EC50 (A. baumannii PBP2) [µM] | MIC (P. aeruginosa CDC-0095) [µg/mL] | MIC (P. aeruginosa ATCC 27853) [µg/mL] | MIC (P. aeruginosa CDC-0090) [µg/mL] | MIC (P. aeruginosa ATCC 35151) [µg/mL] | MIC (P. aeruginosa CDC-0054) [µg/mL] | EC50 (A. baumannii PBP1a) [µM] | MIC (P. aeruginosa CDC-0110) [µg/mL] | MIC (B. pseudomallei Bp82) [µg/mL] | MIC [3] [µg/mL] |
| --- | --- | --- | --- | --- | --- | --- | --- | --- | --- | --- | --- | --- |
| NCc1cc(O)cc(CN2CCC(N3CCN(C(=O)N[C@@H](C(=O)N[C@H]4Cc5ccc(F)c(C(=O)O)c5OB4O)c4cc(F)c(O)c(O)c4Cl)C3=O)CC2)c1 (single isomer, unassigned) [Example 617] | < 1 | < 1 | 50 to 250 | < 1 | < 1 | < 1 | < 1 | < 1 | 10 to 50 | < 1 | < 1 | < 1 |
| Nc1ccc(CN2CCC(N3CCN(C(=O)N[C@@H](C(=O)N[C@H]4Cc5ccc(F)c(C(=O)O)c5OB4O)c4cc(F)c(O)c(O)c4Cl)C3=O)CC2)cn1 (single isomer, unassigned) [Example 618] | < 1 | < 1 | 10 to 50 | 2 to 4 (≈ 2.69 to 5.38 µM) | < 1 | < 1 | < 1 | < 1 | 10 to 50 | < 1 | < 1 | < 1 |
| O=C(O)c1c(F)ccc2c1OB(O)[C@@H](NC(=O)[C@H](NC(=O)N1CCN(C3CCN(Cc4cncc(O)c4)CC3)C1=O)c1cc(F)c(O)c(O)c1Cl)C2 (single isomer, unassigned) [Example 614] | < 1 | < 1 | 10 to 50 | 2 to 4 (≈ 2.68 to 5.37 µM) | < 1 | < 1 | < 1 | 2 to 4 (≈ 2.68 to 5.37 µM) | 10 to 50 | < 1 | < 1 | < 1 |
| Nc1cc(CN2CCC(N3CCN(C(=O)N[C@@H](C(=O)N[C@H]4Cc5ccc(F)c(C(=O)O)c5OB4O)c4cc(F)c(O)c(O)c4Cl)C3=O)CC2)ccn1 [Example 619, (R)-3-((R)-2-(3-(1-((2-aminopyridin-4-yl)methyl)piperidin-4-yl)-2-oxoimidazolidine-1-carboxamido)-2-(2-chloro-5-fluoro-3,4-dihydroxyphenyl)acetamido)-7-fluoro-2-hydroxy-3,4-dihydro-2H-benzo[e][1,2]oxaborinine-8-carboxylic acid] | < 1 | < 1 | 10 to 50 | < 1 | < 1 | < 1 | < 1 | < 1 | < 10 | < 1 |  | < 1 |
| NCc1ccc(C(=O)N2CCC(N3CCN(C(=O)NC(C(=O)N[C@H]4Cc5ccc(F)c(C(=O)O)c5OB4O)c4cc(F)c(O)c(O)c4Cl)C3=O)CC2)cc1 (single isomer, unassigned) [Example 604] | < 1 | < 1 | 10 to 50 | 2 to 4 (≈ 2.59 to 5.19 µM) | < 1 | < 1 | < 1 | < 1 | 10 to 50 | < 1 |  | < 1 |
